This assay has as its system 883617-216-R-J1-PDC complex spheroids, growth, % test/control. The assay can be described thus: Anticancer human tumor 883617-216-R-J1-PDC patient-derived bladder carcinoma cell line growth inhibition [AhR]. The following applies: for viability, T/C: stronger effect = lower value. An outline of the steps: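 Complex tumor spheroids co-cultured with HUVEC and human MSC stroma; AhR antagonists tested in combination with standard-of-care and investigational agents. Top concentration at or near clinical Cmax (else 10 microM), half-log dilutions; growth expressed as percent test/control.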

Setting [1] is: curve of first compound, second compound 0.1 µM.
[2] abbreviates: curve of first compound, second compound 0.316 µM.
Where [3] appears, read: curve of first compound, second compound 1 µM.
Where [4] appears, read: curve of first compound, second compound 3.16 µM.
Setting [5] is: curve of first compound, second compound 10 µM.
[6] abbreviates: second compound 0.1 µM, first compound 0.0316 µM.
Setting [7] is: second compound 0.1 µM, first compound 0.1 µM.
[8] abbreviates: second compound 0.316 µM, first compound 0.0316 µM.
The mark [9] stands for this setting: second compound 0.316 µM, first compound 0.1 µM.
Where [10] appears, read: second compound 1 µM, first compound 0.0316 µM.
The mark [11] stands for this setting: second compound 1 µM, first compound 0.1 µM.
[12] abbreviates: second compound 3.16 µM, first compound 0.0316 µM.
Where [13] appears, read: second compound 3.16 µM, first compound 0.1 µM.
The mark [14] stands for this setting: second compound 10 µM, first compound 0.0316 µM.
The mark [15] stands for this setting: second compound 10 µM, first compound 0.1 µM.
[16] abbreviates: second compound 0.1 µM, first compound 0.316 µM.
[17] abbreviates: second compound 0.1 µM, first compound 1 µM.
Where [18] appears, read: second compound 0.1 µM, first compound 3.16 µM.
The mark [19] stands for this setting: second compound 0.1 µM, first compound 10 µM.
[20] abbreviates: second compound 0.316 µM, first compound 0.316 µM.
Where [21] appears, read: second compound 0.316 µM, first compound 1 µM.
Setting [22] is: second compound 0.316 µM, first compound 3.16 µM.
Setting [23] is: second compound 0.316 µM, first compound 10 µM.
[24] abbreviates: second compound 1 µM, first compound 0.316 µM.
The mark [25] stands for this setting: second compound 1 µM, first compound 1 µM.
Where [26] appears, read: second compound 1 µM, first compound 3.16 µM.
[27] abbreviates: second compound 1 µM, first compound 10 µM.
[28] abbreviates: second compound 3.16 µM, first compound 0.316 µM.
[29] abbreviates: second compound 3.16 µM, first compound 1 µM.
Where [30] appears, read: second compound 3.16 µM, first compound 3.16 µM.
Where [31] appears, read: second compound 3.16 µM, first compound 10 µM.
Setting [32] is: second compound 10 µM, first compound 0.316 µM.
The mark [33] stands for this setting: second compound 10 µM, first compound 1 µM.
[34] abbreviates: second compound 10 µM, first compound 3.16 µM.
The mark [35] stands for this setting: second compound 10 µM, first compound 10 µM.

Structures are written as SMILES. Several values for one entry are separate records, joined by “and”; a condition that tells them apart may be missing. Equal values may be shown once.
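Also: exposure lasted 7 days after dosing on day 3 of spheroid growth.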

As usually defined, the IC50 is the point on the concentration scale where inhibition reaches its midpoint. By viability, T/C is commonly meant the result in the treated group divided by that in the control group, in per cent. `Cn1ncnc1C1c2n[nH]c(=O)c3cc(F)cc(c23)NC1c1ccc(F)cc1` (centres undefined) + Cc1ccccc1N=Nc1ccc(NC(=O)c2ccnn2C)c(C)c1: the IC50 was more than 100 nM under setting [1]; more than 100 nM under setting [2]; more than 100 nM under setting [3]; more than 100 nM under setting [4]; more than 100 nM under setting [5]. The viability, T/C reads like this: (second compound 0.1 µM, first compound 0.000316 µM) 98.1%; (second compound 0.1 µM, first compound 0.001 µM) 97.5%; (second compound 0.1 µM, first compound 0.00316 µM) 92.7%; (second compound 0.1 µM, first compound 0.01 µM) 88.7%; under setting [6], 89.2%; under setting [7], 79.9%. Further, the viability, T/C is 76.4% (second compound 0.316 µM, first compound 0.000316 µM); 85.7% (second compound 0.316 µM, first compound 0.001 µM); 82.7% (second compound 0.316 µM, first compound 0.00316 µM); 83.4% (second compound 0.316 µM, first compound 0.01 µM); 71.9% under setting [8]; 78.3% under setting [9]. Moreover, the viability, T/C (second compound 1 µM, first compound 0.000316 µM) is 87.5%; the viability, T/C (second compound 1 µM, first compound 0.001 µM) is 87.1%; the viability, T/C (second compound 1 µM, first compound 0.00316 µM) is 86.1%; the viability, T/C (second compound 1 µM, first compound 0.01 µM) is 78.6%; the viability, T/C under setting [10] was 81%; the viability, T/C under setting [11] was 81.1%. Also, the viability, T/C was 82% (second compound 3.16 µM, first compound 0.000316 µM); 80.1% (second compound 3.16 µM, first compound 0.001 µM); 78.4% (second compound 3.16 µM, first compound 0.00316 µM); 87.3% (second compound 3.16 µM, first compound 0.01 µM); 84.6% under setting [12]; 85.5% under setting [13]. For the same compound, the viability, T/C by setting is: (second compound 10 µM, first compound 0.000316 µM) 70.4%; (second compound 10 µM, first compound 0.001 µM) 98.1%; (second compound 10 µM, first compound 0.00316 µM) 75.8%; (second compound 10 µM, first compound 0.01 µM) 81.8%; under setting [14], 63.6%; under setting [15], 76%.

With `COc1cccc2c1C(=O)c1c(O)c3c(c(O)c1C2=O)CC(O)(C(=O)CO)CC3OC1CC(N)C(O)C(C)O1` (centres undefined), the viability, T/C (compound 0.0316 µM) was 70.3% and 65.3% and 99.7%; the viability, T/C (compound 0.1 µM) is 65.2% and 60.5% and 54.1%; the viability, T/C (compound 0.316 µM) was 60.8% and 58.8% and 62.2%; the viability, T/C (compound 1 µM) is 22.4% and 23% and 6.26%; the viability, T/C (compound 3.16 µM) was 0.22% and 0.36% and 3.97%; the viability, T/C (compound 10 µM) is 0.22% and 0.16% and 3.6%. Moreover, where the note is “curve of compound”, the half-maximal inhibitory concentration (IC50) is 436 nM and 420 nM and 211 nM.

Regarding `NS(=O)(=O)OCC1CC(n2ccc3c(NC4CCc5ccccc54)ncnc32)CC1O` (centres undefined) + Cc1cncc(-c2nc(NCCc3c[nH]c4ccccc34)c3ncn(C(C)C)c3n2)c1, the IC50 is, setting by setting: under setting [1], 2750 nM; under setting [2], 2990 nM; under setting [3], 2790 nM; under setting [4], 2260 nM; under setting [5], less than 31.6 nM. For the same compound, the viability, T/C is, setting by setting: under setting [6], 118%; under setting [7], 165%; under setting [16], 209%; under setting [17], 131%; under setting [18], 43.6%; under setting [19], 29.1%. In addition, the viability, T/C was 128% under setting [8]; 164% under setting [9]; 225% under setting [20]; 120% under setting [21]; 44.5% under setting [22]; 25.9% under setting [23]. Besides, the viability, T/C by setting is: under setting [10], 141%; under setting [11], 167%; under setting [24], 212%; under setting [25], 130%; under setting [26], 48%; under setting [27], 30.1%. Moreover, the viability, T/C under setting [12] is 141%; the viability, T/C under setting [13] is 179%; the viability, T/C under setting [28] is 204%; the viability, T/C under setting [29] was 112%; the viability, T/C under setting [30] was 33.2%; the viability, T/C under setting [31] was 15.4%. Further, the viability, T/C reads like this: under setting [14], 48.1%; under setting [15], 50.6%; under setting [32], 28.6%; under setting [33], 6.98%; under setting [34], 4.81%; under setting [35], 2.51%.

On to `CC1(C)CCC(CN2CCN(c3ccc(C(=O)NS(=O)(=O)c4ccc(NCC5CCOCC5)c([N+](=O)[O-])c4)c(Oc4cnc5[nH]ccc5c4)c3)CC2)=C(c2ccc(Cl)cc2)C1` + Cc1cncc(-c2nc(NCCc3c[nH]c4ccccc34)c3ncn(C(C)C)c3n2)c1, for which the IC50 is 6160 nM under setting [1]; 6290 nM under setting [2]; 5920 nM under setting [3]; 8250 nM under setting [4]; more than 10000 nM under setting [5]. Besides, the viability, T/C by setting is: under setting [6], 85.7%; under setting [7], 88.8%; under setting [16], 90%; under setting [17], 78.6%; under setting [18], 80.4%; under setting [19], 28.5%. In addition, the viability, T/C under setting [8] was 97.3%; the viability, T/C under setting [9] is 99.2%; the viability, T/C under setting [20] was 94.2%; the viability, T/C under setting [21] was 88.5%; the viability, T/C under setting [22] is 82.2%; the viability, T/C under setting [23] was 29%. Further, the viability, T/C under setting [10] is 86.5%; the viability, T/C under setting [11] was 89.7%; the viability, T/C under setting [24] was 87.7%; the viability, T/C under setting [25] is 84.5%; the viability, T/C under setting [26] was 82.5%; the viability, T/C under setting [27] was 23%. Further, the viability, T/C by setting is: under setting [12], 99.1%; under setting [13], 108%; under setting [28], 115%; under setting [29], 97.2%; under setting [30], 106%; under setting [31], 38.9%. Besides, the viability, T/C is 49.4% under setting [14]; 52.6% under setting [15]; 57.1% under setting [32]; 61.4% under setting [33]; 72% under setting [34]; 37.3% under setting [35].

For `Cn1ncnc1C1c2n[nH]c(=O)c3cc(F)cc(c23)NC1c1ccc(F)cc1` (centres undefined), the viability, T/C is, setting by setting: (compound 0.000316 µM) 105% (2×) and 85.5%; (compound 0.001 µM) 111% and 107% and 106%; (compound 0.00316 µM) 103% and 101% and 76.3%; (compound 0.01 µM) 97.2% and 91.8% and 87.1%; (compound 0.0316 µM) 82.2% and 83.4% and 63.1%; (compound 0.1 µM) 75.4% and 77% and 89.1%. In addition, the IC50 (curve of compound) was more than 100 nM.

The values are drawn from PubChem BioAssay AID1919004 (Molecular Pharmacology Branch, DTP, NCI, 2023).
